Measurements taken from patent US20240166641A1, “HETEROCYCLES AND USES THEREOF” (Kumquat Biosciences Inc., priority 2021, published 2024).
pIC50: −log10 of the molar value.

Columns and labels:
PTPN2 = molecular target: T1, PTPN2 (Homo sapiens, UniProt P17706); experiment: Phosphatase activity assay (Bio-Biochem-DiFMUP), PTPN2; type: biochemical; conditions: DiFMUP substrate, room temperature
T1 sequence (P17706 1-415): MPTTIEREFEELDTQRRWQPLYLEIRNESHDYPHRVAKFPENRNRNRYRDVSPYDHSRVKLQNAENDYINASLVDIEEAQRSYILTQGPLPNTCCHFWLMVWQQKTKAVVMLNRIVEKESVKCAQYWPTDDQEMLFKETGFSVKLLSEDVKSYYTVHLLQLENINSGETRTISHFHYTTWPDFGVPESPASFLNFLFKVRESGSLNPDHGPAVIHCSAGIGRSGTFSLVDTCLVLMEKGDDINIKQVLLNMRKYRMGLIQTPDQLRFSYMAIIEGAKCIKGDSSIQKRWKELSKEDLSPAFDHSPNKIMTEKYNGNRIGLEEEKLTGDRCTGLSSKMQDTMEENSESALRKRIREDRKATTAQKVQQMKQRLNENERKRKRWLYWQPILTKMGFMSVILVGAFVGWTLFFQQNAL
Text: (§1) The selectivity and potency of a small molecule PTPN2 inhibitor as provided herein (e.g., a derivative of Formula I, II, III, IV; or sub-formulae thereof) against one or more protein tyrosine phosphatase (PTP) enzymes, and specifically against PTPN2, can be assessed in various ways. The one or more PTP enzymes comprise Mycobacterium protein tyrosine phosphatase A (mPTPA), Mycobacterium protein tyrosine phosphatase B (mPTPB), PTPN1 (i.e., PTP1B), PTPN2 (i.e., TC-PTP), SHP-1, SHP-2, FAP-1, Meg2, HePTP, Laforin, VHX, VHR, LMWPTP, Cdcl4A, LAR, CD45, PTPRG, a fragment thereof, a variant thereof, and a combination thereof. Selectivity and potency of a small molecule PTPN2 inhibitor is evaluated using a PTP activity inhibition assay. The assay is performed using a buffer comprising 50 millimolar (mM) Bis-Tris (pH=6.3), 2 mM EDTA, and 5 mM N,N′-dimethyl-N,N′-bis(mercaptoacetyl)hydrazine (DMH). The assay is performed using a phosphated substrate, e.g., 10 mM fluorescein diphosphate (FDP) that is stored at −20° C. Alternatively or in addition to, the assay is performed using 10 mM DiFMUP as a phosphated substrate. Each PTP enzyme is diluted in an enzyme dilution buffer comprising 50 mM Bis-Tris (pH=6.3), 2 mM EDTA, 5 mM DMH, 20% (vol./vol.) glycerol, and 0.01% (vol./vol.) Triton X-100.
(§2) The assay is carried out at room temperature in 96 well plates. A reaction mixture of 170 microliter (μL) of the assay buffer comprising 10 μM FDP or DiFMIUP is added to each well. A 10 μL volume of (i) a compound disclosed herein (e.g., PTPN2 inhibitor) dissolved in DMSO at one of 10 concentrations from a serial dilution or (ii) DMSO alone for control is added to each well. The reaction is initiated by adding 20 μL of a PTP enzyme (e.g., PTPN2) that is diluted in the enzyme dilution buffer. The phosphatase activity of the PTP enzyme is assessed by monitoring appearance of a fluorescent product (e.g., fluorescein monophosphate (FMP) from FDP, or 6,8-difluoro-7-hydroxyl-4-coumarin (DiFMU) from DiFMUP) continuously for about 15 to 30 minutes, using the SpectraMax® Gemini™ XPS Microplate Spectrofluorometer (Molecular Devices®) with excitation of 440 nm and emission at 530 nm (cutoff filter at 525 nm) for FMP and excitation at 360 nm and emission at 450 nm (cutoff filter at 435 nm) for DiFMU. The rate (e.g., the initial rate) of FMP or DiFMU formation is plotted against the concentration of the small molecule PTPN2 inhibitor, and the data is fitted (e.g., using a 4-parameter equation) to determine the inflection point of the fit as the IC50 of the small molecule PTPN2 inhibitor for a specific enzyme. Table 6 summarizes the IC50 values of compounds disclosed herein against PTPN2 and PTPN1.

PTP1B = molecular target: T2, PTP1B (Homo sapiens, UniProt P18031); experiment: Phosphatase activity assay (Bio-Biochem-DiFMUP), PTP1B; type: biochemical; conditions: DiFMUP substrate, room temperature
T2 sequence (P18031 1-435): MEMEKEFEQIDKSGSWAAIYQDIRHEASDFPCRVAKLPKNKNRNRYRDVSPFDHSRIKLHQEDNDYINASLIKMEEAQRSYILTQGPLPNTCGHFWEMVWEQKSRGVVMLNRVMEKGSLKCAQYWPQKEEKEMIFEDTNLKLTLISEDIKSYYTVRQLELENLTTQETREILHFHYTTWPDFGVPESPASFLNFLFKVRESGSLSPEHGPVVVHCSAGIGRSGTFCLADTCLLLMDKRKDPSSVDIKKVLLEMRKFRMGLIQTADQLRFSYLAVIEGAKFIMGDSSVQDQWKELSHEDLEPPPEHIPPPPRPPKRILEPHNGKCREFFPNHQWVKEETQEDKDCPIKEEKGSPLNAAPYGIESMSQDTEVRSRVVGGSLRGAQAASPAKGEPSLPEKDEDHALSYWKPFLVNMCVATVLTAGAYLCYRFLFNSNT
Text: as §1, §2

Row | SMILES | pIC50 (PTPN2) | pIC50 (PTP1B)
1 | Cn1c(=O)c(NCCc2ccccc2)cc2cc(N3CC(=O)NS3(=O)=O)c(O)cc21 [Compound 123, 5-(7-hydroxy-1-methyl-2-oxo-3-(phenethylamino)-1,2-dihydroquinolin-6-yl)-1,2,5-thiadiazolidin-3-one 1,1-dioxide] | ≥ 6.00 | ≥ 6.00
2 | COc1ccc2cc(O)c(N3CC(=O)NS3(=O)=O)cc2n1 [Compound 124] | ≥ 6.00 | ≥ 6.00
3 | CCN1CCC(CNc2cc3cc(N4CC(=O)NS4(=O)=O)c(O)cc3n(C)c2=O)CC1 [Compound 171] | ≥ 6.00 | ≥ 6.00
4 | CC(C)CCNc1ccc2cc(O)c(N3C(C)C(=O)NS3(=O)=O)cc2n1 (centres unmarked) [Compound 137, 5-(6-hydroxy-2-(isopentylamino)quinolin-7-yl)-4-methyl-1,2,5-thiadiazolidin-3-one 1,1-dioxide] | ≥ 6.00 | ≥ 6.00
5 | N#CCCCOc1ccc2cc(O)c(N3CC(=O)NS3(=O)=O)cc2n1 [Compound 175] | ≥ 6.00 | ≥ 6.00
6 | Cn1c(=O)c(O)cc2c(F)c(N3CC(=O)NS3(=O)=O)c(O)cc21 [Compound 184] | 5.00 to 6.00 | ≥ 6.00
7 | N#Cc1cccc(CCOc2ccc3cc(O)c(N4CC(=O)NS4(=O)=O)cc3n2)c1 [Compound 159] | ≥ 6.00 | ≥ 6.00
8 | CN1CC=C(c2cnc3cc(O)c(C4=CC(=O)NS4(=O)=O)cc3c2)CC1 [Compound 114] | < 5.00 | < 5.00
9 | O=C1CN(c2c(O)cc3sc(C(=O)NCCc4ccccc4)cc3c2F)S(=O)(=O)N1 [Compound 198] | ≥ 6.00 | ≥ 6.00
10 | CC(C)CCNc1ccc2cc(O)c(N3CC(=O)NS3(=O)=O)cc2n1 [Compound 187] | < 5.00 | < 5.00
11 | CC(C)CCNC(=O)c1cc2cc(N3CC(=O)NS3(=O)=O)c(O)cc2s1 [Compound 132] | ≥ 6.00 | ≥ 6.00
12 | Cn1c(=O)c(NCC2(C#N)CC2)cc2cc(N3CC(=O)NS3(=O)=O)c(O)cc21 [Compound 202] | 5.00 to 6.00 | ≥ 6.00
13 | CC(C)OCCNc1ccc2cc(O)c(N3CC(=O)NS3(=O)=O)cc2n1 [Compound 138] | ≥ 6.00 | ≥ 6.00
14 | CC(C)CCn1cnc2cc(O)c(N3CC(=O)NS3(=O)=O)cc2c1=O [Compound 196] | < 5.00 | < 5.00
15 | CN(C)C1CN(c2cc3cc(N4CC(=O)NS4(=O)=O)c(O)cc3n(C)c2=O)C1 [Compound 172] | 5.00 to 6.00 | 5.00 to 6.00

More lines, now with the values ahead:

Row | pIC50 (PTPN2) | pIC50 (PTP1B) | SMILES
16 | ≥ 6.00 | ≥ 6.00 | CC(C)CCNc1cnc2cc(O)c(N3CC(=O)NS3(=O)=O)cc2c1 [Compound 142, 5-(7-hydroxy-3-(isopentylamino)quinolin-6-yl)-1,2,5-thiadiazolidin-3-one 1,1-dioxide]
17 | < 5.00 | < 5.00 | CC(C)CCN1Cc2cc(C3=CC(=O)NS3(=O)=O)c(O)cc2N(C)C1=O [Compound 108, 5-(7-hydroxy-3-isopentyl-1-methyl-2-oxo-1,2,3,4-tetrahydroquinazolin-6-yl)isothiazol-3(2H)-one 1,1-dioxide]
18 | ≥ 6.00 | ≥ 6.00 | Cn1c(=O)c(NCCCC#N)cc2cc(N3CC(=O)NS3(=O)=O)c(O)cc21 [Compound 148]
19 | ≥ 6.00 | ≥ 6.00 | CC(C)CC#Cc1cc2cc(N3CC(=O)NS3(=O)=O)c(O)cc2n(C)c1=O [Compound 181]
20 | < 5.00 | < 5.00 | O=C1CN(c2cc3nc(OCCN4CCOCC4)ccc3cc2O)S(=O)(=O)N1 [Compound 131]
21 | 5.00 to 6.00 | 5.00 to 6.00 | CC(C)CCN1Cc2cc(C3=CC(=O)NS3(=O)=O)c(O)cc2CC1=O [Compound 110]
22 | 5.00 to 6.00 | ≥ 6.00 | O=C1CN(c2cc3nc(C4CCOC4)ccc3cc2O)S(=O)(=O)N1 (centres unmarked) [Compound 147]
23 | ≥ 6.00 | ≥ 6.00 | CC(C)OCCNc1cc2cc(N3CC(=O)NS3(=O)=O)c(O)cc2n(C)c1=O [Compound 195]
24 | 5.00 to 6.00 | ≥ 6.00 | C[C@H](Nc1cc2cc(N3CC(=O)NS3(=O)=O)c(O)cc2n(C)c1=O)c1ccccc1 [Compound 194]
25 | < 5.00 | < 5.00 | CC(C)CCN1Cc2cc(C3CC(=O)NS3(=O)=O)c(O)cc2CC1=O (centres unmarked) [Compound 112]
26 | ≥ 6.00 | ≥ 6.00 | Cn1c(=O)c(NCCC#N)cc2cc(N3CC(=O)NS3(=O)=O)c(O)cc21 [Compound 164]
27 | 5.00 to 6.00 | ≥ 6.00 | Cn1c(=O)c(N2CCCC2)cc2cc(N3CC(=O)NS3(=O)=O)c(O)cc21 [Compound 134]
28 | ≥ 6.00 | ≥ 6.00 | CC(C)CCOc1cc2cc(N3CC(=O)NS3(=O)=O)c(O)cc2n(C)c1=O [Compound 160]
29 | ≥ 6.00 | ≥ 6.00 | Cn1c(=O)c(NCc2ccccc2)cc2cc(N3CC(=O)NS3(=O)=O)c(O)cc21 [Compound 177]
30 | 5.00 to 6.00 | 5.00 to 6.00 | COC(=O)c1cc2cc(N3CC(=O)NS3(=O)=O)c(O)cc2s1 [Compound 103]
31 | ≥ 6.00 | ≥ 6.00 | CC(C)CCNc1cc2cc(N3CC(=O)NS3(=O)=O)c(O)cc2n(C2CC2)c1=O [Compound 145]
32 | < 5.00 | < 5.00 | CC(C)CN(C)Cc1cc(=O)n2cc(O)c(C3=CC(=O)NS3(=O)=O)cc2c1 [Compound 122]
33 | 5.00 to 6.00 | 5.00 to 6.00 | CC(C)CCNc1cc2cc(N3C(C)C(=O)NS3(=O)=O)c(O)cc2n(C)c1=O (centres unmarked) [Compound 203]
34 | 5.00 to 6.00 | ≥ 6.00 | CC(C)CCN1Cc2cc(N3CC(=O)NS3(=O)=O)c(O)cc2N(C)C1=O [Compound 116]
